Values of other authors, collected in US20110224196A1, “TREATMENT OF O[…] APNEA SYNDROME WITH A COMBINATION OF A CARBONIC ANHYDRASE INHIBITOR AND AN […] AGENT” (Vivus, Inc., priority 2010, published 2011).

Q: With NC(=O)C[S+]([O-])C(c1ccccc1)c1ccccc1 (stereo not shown) [Modafinil, 2-[(diphenylmethy)sulfinyl]-N-acetamide] as the molecule, how does the solubility in acetone (acetone) read?
A: sparingly or slightly soluble

Q: And the solubility in cyclohexane (cyclohexane)?
A: insoluble

Q: And the solubility in methanol (methanol)?
A: sparingly or slightly soluble

Q: And the solubility in water (water)?
A: insoluble
